Target: T1, Androgen Receptor (AR) (Homo sapiens, UniProt P10275, T878A)
T1 construct: cell based immuno-fluorescence assay using the LNCaP prostate epithelial cell line; endogenous in cells; host or cells: LNCaP clone FGC (ATCC CRL-1740)
T1 sequence (P10275 1-920 T878A): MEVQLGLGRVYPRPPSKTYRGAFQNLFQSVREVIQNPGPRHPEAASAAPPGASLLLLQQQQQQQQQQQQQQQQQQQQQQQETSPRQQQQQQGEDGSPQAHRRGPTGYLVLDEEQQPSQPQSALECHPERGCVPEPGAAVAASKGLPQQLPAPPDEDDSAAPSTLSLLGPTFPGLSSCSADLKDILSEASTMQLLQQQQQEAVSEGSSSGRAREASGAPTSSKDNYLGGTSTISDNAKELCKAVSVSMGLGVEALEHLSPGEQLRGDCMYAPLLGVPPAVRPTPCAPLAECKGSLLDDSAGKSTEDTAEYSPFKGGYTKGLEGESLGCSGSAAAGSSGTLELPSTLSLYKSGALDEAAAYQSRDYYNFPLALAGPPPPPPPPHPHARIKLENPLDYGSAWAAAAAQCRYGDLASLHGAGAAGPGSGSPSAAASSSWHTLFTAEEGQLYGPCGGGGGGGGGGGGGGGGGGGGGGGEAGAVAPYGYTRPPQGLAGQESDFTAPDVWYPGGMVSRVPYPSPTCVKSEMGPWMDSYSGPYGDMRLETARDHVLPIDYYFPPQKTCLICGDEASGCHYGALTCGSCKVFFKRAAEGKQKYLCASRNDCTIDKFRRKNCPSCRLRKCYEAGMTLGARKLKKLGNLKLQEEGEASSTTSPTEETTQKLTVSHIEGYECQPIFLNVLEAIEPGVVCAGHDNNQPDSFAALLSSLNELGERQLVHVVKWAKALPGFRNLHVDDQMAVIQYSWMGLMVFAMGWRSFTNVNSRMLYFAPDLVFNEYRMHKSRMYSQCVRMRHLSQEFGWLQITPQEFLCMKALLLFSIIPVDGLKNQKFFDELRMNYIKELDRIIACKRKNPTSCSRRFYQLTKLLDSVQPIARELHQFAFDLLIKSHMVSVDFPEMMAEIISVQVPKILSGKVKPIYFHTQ
Test: LNCaP Androgen Receptor Down-regulation Cell Assay (immunofluorescence end point)
Format: cell-based
Settings: LNCaP prostate carcinoma cells, compound incubation 20-22 hours, 50% reduction of the AR signal; read-out: Androgen Receptor Down-regulation Assay (a) IC50/μM
How it was run: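 AR loss reported as IC50 from curve fits of fluorescence dose-response data, with AR immunostained and read by laser-scanning cytometry. Compound exposure was 20-22 h at 37° C in LNCaP cells grown in 5% charcoal-stripped FBS and plated overnight beforehand.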

`FC(F)(F)c1nnc2ccc(N3CCN(Cc4cccc(Oc5ccc(Cl)cc5)c4)CC3)nn12` [Example 119, 6-[4-[[3-(4-chlorophenoxy)phenyl]methyl]piperazin-1-yl]-3-(trifluoromethyl)-[1,2,4]triazolo[4,3-b]pyridazine] and `COc1ccc(Oc2cccc(CN3CCN(c4ccc5nnc(C(F)(F)F)n5n4)CC3)c2)cc1` [Example 120, 6-[4-[[3-(4-methoxyphenoxy)phenyl]methyl]piperazin-1-yl]-3-(trifluoromethyl)-[1,2,4]triazolo[4,3-b]pyridazine] are within 1.5-fold of each other in DC50: 2.2 µM for the first, 1.7 µM for the second.

Compared with `COC(=O)c1ccc(CN2CCN(c3ccc4nnc(C(F)(F)F)n4n3)CC2)cc1` [Example 121, methyl 4-[[4-[3-(trifluoromethyl)-[1,2,4]triazolo[4,3-b]pyridazin-6-yl]piperazin-1-yl]methyl]benzoate], `FC(F)(F)c1nnc2ccc(N3CCN(Cc4ccc(Br)cc4)CC3)nn12` [Example 127, 6-[4-[(4-bromophenyl)methyl]piperazin-1-yl]-3-(trifluoromethyl)-[1,2,4]triazolo[4,3-b]pyridazine] is 3.2-fold lower in DC50: 4.8 µM for the first, 1.5 µM for the second.

Going from `CC(C)(C)c1ccc(CN2CCN(c3ccc4nnc(C(F)(F)F)n4n3)CC2)cc1` [Example 122, 6-[4-[(4-tert-butylphenyl)methyl]piperazin-1-yl]-3-(trifluoromethyl)-[1,2,4]triazolo[4,3-b]pyridazine] to `CC(C)c1ccc(CN2CCN(c3ccc4nnc(C(F)(F)F)n4n3)CC2)cc1` [Example 130, 6-[4-[(4-propan-2-ylphenyl)methyl]piperazin-1-yl]-3-(trifluoromethyl)-[1,2,4]triazolo[4,3-b]pyridazine], the DC50 falls from 4.3 µM to 1.8 µM (2.4-fold).

First: CC(C)Cc1ccc(CN2CCN(c3ccc4nnc(C(F)(F)F)n4n3)CC2)cc1 [Example 123, 6-[4-[[4-(2-methylpropyl)phenyl]methyl]piperazin-1-yl]-3-(trifluoromethyl)-[1,2,4]triazolo[4,3-b]pyridazine]
Second: CSc1ccc(CN2CCN(c3ccc4nnc(C(F)(F)F)n4n3)CC2)cc1 [Example 129, 6-[4-[(4-methylsulfanylphenyl)methyl]piperazin-1-yl]-3-(trifluoromethyl)-[1,2,4]triazolo[4,3-b]pyridazine]
The DC50 of the first is 4.1-fold higher: 4.1 µM for the first, 0.99 µM for the second.

`Cc1ccc(Sc2ccc(CN3CCN(c4ccc5nnc(C(F)(F)F)n5n4)CC3)cn2)cc1` [Example 124, 6-[4-[[6-(4-methylphenyl)sulfanylpyridin-3-yl]methyl]piperazin-1-yl]-3-(trifluoromethyl)-[1,2,4]triazolo[4,3-b]pyridazine] and `FC(F)(F)c1nnc2ccc(N3CCN(Cc4ccc(Cl)nc4)CC3)nn12` [Example 137, 6-[4-[(6-chloropyridin-3-yl)methyl]piperazin-1-yl]-3-(trifluoromethyl)-[1,2,4]triazolo[4,3-b]pyridazine] are within 1.5-fold of each other in DC50: 1.7 µM for the first, 1.5 µM for the second.

`Fc1ccc(-c2cccc(CN3CCN(c4ccc5nnc(C(F)(F)F)n5n4)CC3)c2)cc1` [Example 125, 6-[4-[[3-(4-fluorophenyl)phenyl]methyl]piperazin-1-yl]-3-(trifluoromethyl)-[1,2,4]triazolo[4,3-b]pyridazine] and `Fc1ccc(Oc2ccc(CN3CCN(c4ccc5nnc(C(F)(F)F)n5n4)CC3)cc2)cc1` [Example 126, 6-[4-[[4-(4-fluorophenoxy)phenyl]methyl]piperazin-1-yl]-3-(trifluoromethyl)-[1,2,4]triazolo[4,3-b]pyridazine] are within 1.5-fold of each other in DC50: 1.9 µM for the first, 2 µM for the second.

Compared with `CCN(CC)c1ccc(CN2CCN(c3ccc4nnc(C(F)(F)F)n4n3)CC2)cc1` [Example 128, N,N-diethyl-4-[[4-[3-(trifluoromethyl)-[1,2,4]triazolo[4,3-b]pyridazin-6-yl]piperazin-1-yl]methyl]aniline], `CN(C)CCOc1ccc(CN2CCN(c3ccc4nnc(C(F)(F)F)n4n3)CC2)cc1` [Example 140, N,N-dimethyl-2-[4-[[4-[3-(trifluoromethyl)-[1,2,4]triazolo[4,3-b]pyridazin-6-yl]piperazin-1-yl]methyl]phenoxy]ethanamine] is 3.1-fold higher in DC50: 2.3 µM for the first, 7.1 µM for the second.

Going from `FC(F)(F)Oc1ccc(CN2CCN(c3ccc4nnc(C(F)(F)F)n4n3)CC2)cc1` [Example 131, 6-[4-[[4-(trifluoromethoxy)phenyl]methyl]piperazin-1-yl]-3-(trifluoromethyl)-[1,2,4]triazolo[4,3-b]pyridazine] to `C=CCOc1ccc(CN2CCN(c3ccc4nnc(C(F)(F)F)n4n3)CC2)cc1` [Example 139, 6-[4-[(4-prop-2-enoxyphenyl)methyl]piperazin-1-yl]-3-(trifluoromethyl)-[1,2,4]triazolo[4,3-b]pyridazine], the DC50 falls from 4.1 µM to 2 µM (2-fold).

`FC(F)(F)c1nnc2ccc(N3CCN(Cc4ccc(Oc5ccc(Cl)cc5)cc4)CC3)nn12` [Example 132, 6-[4-[[4-(4-chlorophenoxy)phenyl]methyl]piperazin-1-yl]-3-(trifluoromethyl)-[1,2,4]triazolo[4,3-b]pyridazine] and `FC(F)(F)c1nnc2ccc(N3CCN(Cc4ccc(-c5ccccn5)cc4)CC3)nn12` [Example 134, 6-[4-[(4-pyridin-2-ylphenyl)methyl]piperazin-1-yl]-3-(trifluoromethyl)-[1,2,4]triazolo[4,3-b]pyridazine] are within 1.5-fold of each other in DC50: 2.6 µM for the first, 1.8 µM for the second.

Going from `CCS(=O)(=O)c1ccc(CN2CCN(c3ccc4nnc(C(F)(F)F)n4n3)CC2)cc1` [Example 135, 6-[4-[(4-ethylsulfonylphenyl)methyl]piperazin-1-yl]-3-(trifluoromethyl)-[1,2,4]triazolo[4,3-b]pyridazine] to `CCOc1ccc(CN2CCN(c3ccc4nnc(C(F)(F)F)n4n3)CC2)cn1` [Example 147, 6-[4-[(6-ethoxypyridin-3-yl)methyl]piperazin-1-yl]-3-(trifluoromethyl)-[1,2,4]triazolo[4,3-b]pyridazine], the DC50 falls from 4.9 µM to 2.5 µM (2-fold).

First: COc1ccc(CN2CCN(c3ccc4nnc(C(F)(F)F)n4n3)CC2)cn1 [Example 142, 6-[4-[(6-methoxypyridin-3-yl)methyl]piperazin-1-yl]-3-(trifluoromethyl)-[1,2,4]triazolo[4,3-b]pyridazine]
Second: CC(C)Oc1ccc(CN2CCN(c3ccc4nnc(C(F)(F)F)n4n3)CC2)cn1 [Example 148, 6-[4-[(6-propan-2-yloxypyridin-3-yl)methyl]piperazin-1-yl]-3-(trifluoromethyl)-[1,2,4]triazolo[4,3-b]pyridazine]
The DC50 of the first is 1.5-fold higher: 5.1 µM for the first, 3.4 µM for the second.

`FC(F)(F)c1nnc2ccc(N3CCN(Cc4ccc(N5CCOCC5)nc4)CC3)nn12` [Example 143, 6-[4-[(6-morpholin-4-ylpyridin-3-yl)methyl]piperazin-1-yl]-3-(trifluoromethyl)-[1,2,4]triazolo[4,3-b]pyridazine] and `OCc1cccc(CN2CCN(c3ccc4nnc(C(F)(F)F)n4n3)CC2)c1` [Example 149, [3-[[4-[3-(trifluoromethyl)-[1,2,4]triazolo[4,3-b]pyridazin-6-yl]piperazin-1-yl]methyl]phenyl]methanol] are within 1.5-fold of each other in DC50: 8.8 µM for the first, 7.9 µM for the second.

For `FC(F)(F)c1nnc2ccc(N3CCN(Cc4ccc(Oc5ccccc5)nc4)CC3)nn12` [Example 144, 6-[4-[(6-phenoxypyridin-3-yl)methyl]piperazin-1-yl]-3-(trifluoromethyl)-[1,2,4]triazolo[4,3-b]pyridazine], the DC50 was 4.9 µM.
